# How the values were obtained:
# Type in all cases: in vivo
# TMD8 cells = assay: TMD8 DLBCL xenograft mouse model, tumor growth inhibition; conditions: single agent, day 14
# Description: TMD8 cells are of DLBCL origin. TMD8 cells were cultured in RPMI1640 complete medium supplemented with 10% (v/v) fetal bovine serum, and 100 μg/mL of penicillin and streptomycin. On the day of implantation, aggregated cells were dispersed. Four hours later, media was removed, and the cells were collected as described above. Cells were re-suspended in cold (4° C.) PBS and same volume of matrigel was added to give a final concentration of 5×10^7 cells/mL for TMD8. Re-suspended cells were placed on ice prior to inoculation. The right flank region of each mouse (NOD/SCID) was cleaned with 75% ethanol prior to cell inoculation. Animals were then injected subcutaneously with 1×10^7 TMD8 cells in 200 μl of cell suspension in the right front flank via a 26-gauge needle.
# On day 15 after inoculation, animals were randomly divided into 8 groups with 10 mice per group according to the tumor volume. The groups consisted of vehicle group (0.5% (w/v) methylcellulose solution), 2.5 mg/kg BTK-1 (dissolved in 0.5% (w/v) methylcellulose solution), 10 mg/kg Compound 1 (dissolved in 0.5% (w/v) methylcellulose solution), 30 mg/kg Compound 1 (dissolved in 0.5% (w/v) methylcellulose solution), 100 mg/kg Compound 1 (dissolved in 0.5% (w/v) methylcellulose solution) and the combination of Compound 1/BTK-1 (10 mg/kg Compound 1 and 2.5 mg/kg BTK-1), (30 mg/kg Compound 1 and 2.5 mg/kg BTK-1), or (100 mg/kg Compound 1 and 2.5 mg/kg BTK-1), see Table 3. BTK-1 and Compound 1 were administered by oral gavage (p.o.) twice daily (BID). After implantation, primary tumor volume was measured in two dimensions using a caliper. Compound 1 was (S)-3-(1-(8-amino-1-methylimidazo[1,5-a] pyrazin-3-yl)ethyl)-5-chloro-6-fluoro-2-isopropoxy-N-(2-(4-methylpiperazin-1-yl)ethyl)benzamide.
# Individual body weight was recorded twice weekly, with mice being monitored daily for clinical signs of toxicity for the duration of the study. Mice were euthanized using carbon dioxide when their tumor volume reached 2,000 mm^3 after twice measurements, the tumor was ulcerated, or body weight loss exceeded 20%.
# (§1) Tumor volume was calculated using the formula: V=0.5×(a×b^2) where a and b are the long and short diameters of the tumor, respectively. Tumor growth inhibition (TGI) was calculated using the formula in the above examples.
# JeKo-1 cells = assay: JeKo-1 MCL xenograft mouse model, tumor growth inhibition; conditions: single agent, day 21
# Description: JeKo-1 cells are of mantle cell lymphoma (MCL) origin. These cells were cultured in RPMI1640 complete medium supplemented with 10% (v/v) fetal bovine serum, and 100 μg/mL of penicillin and streptomycin. NOD/SCID mice were pre-treated with cyclophosphamide (prepared in saline, 100 mg/kg, i.p.) and disulfiram (prepared in 0.8% Tween-80 in saline, 125 mg/kg, p.o., two hours after each dose of cyclophosphamide) once daily for two days.
# On the day of implantation, aggregated cells were dispersed. Four hours later, the media was removed, and the cells were collected and re-suspended in cold (4° C.) DPBS with a final concentration of 1×10^8 cells/mL. Re-suspended cells were placed on ice prior to inoculation. The right flank region of each mouse was cleaned with 75% ethanol prior to cell inoculation. Animals were then co-injected subcutaneously with 1×10^7 JeKo-1 cells in 100 μL of cell suspension in the right front flank via a 26-gauge needle.
# Animals were randomly divided into six groups with 10 mice per group. The groups consisted of vehicle group (0.5% (w/v) methylcellulose solution), 7.5 mg/kg BTK-1 (dissolved in 0.5% (w/v) methylcellulose solution), 12 mg/kg Compound 2 (dissolved in 0.5% (w/v) methylcellulose solution), 36 mg/kg Compound 2 (dissolved in 0.5% (w/v) methylcellulose solution), and the combination of Compound 2/BTK-1 (12 mg/kg Compound 2 and 7.5 mg/kg BTK-1), or (36 mg/kg Compound 2 and 7.5 mg/kg BTK-1), see Table 1. […]
# Both compounds were administered by oral gavage (p.o.) twice daily (BID). After implantation, primary tumor volume was measured in two dimensions using a caliper.
# (§2) Individual body weight was recorded twice weekly, with mice being monitored daily for clinical signs of toxicity for the duration of the study. […]
# as §1, with “following formula: % TGI=100×[1−(treatedt/vehiclet)](treatedt=treated tumor volume at time t) and (vehiclet=vehicle tumor volume at time t)” for “formula in the above examples.”
# MINO cells = assay: MINO MCL xenograft mouse model, tumor growth inhibition; conditions: single agent, day 24
# Description: MINO cells are of MCL origin. The MINO cells were cultured in RPMI1640 complete medium supplemented with 10% (v/v) fetal bovine serum, and 100 μg/mL of penicillin and streptomycin. On the day of implantation, aggregated cells were dispersed. Four hours later, media was removed, and the cells were collected as described above. Cells were re-suspended in cold (4° C.) PBS with a final concentration of 1×10^8 cells/mL. Re-suspended cells were placed on ice prior to inoculation. The right flank region of each mouse (NOD/SCID) was cleaned with 75% ethanol prior to cell inoculation. Animals were then injected subcutaneously with 1×10^7 MINO cells in 100 μl of cell suspension in the right front flank via a 26-gauge needle.
# On day 1 after inoculation, animals were randomly divided into 6 groups with 10 mice per group according to the inoculation order. The groups consisted of vehicle group (0.5% (w/v) methylcellulose solution), 7.5 mg/kg BTK-1 (dissolved in 0.5% (w/v) methylcellulose solution), 12 mg/kg Compound 2 (dissolved in 0.5% (w/v) methylcellulose solution), 36 mg/kg Compound 2 (dissolved in 0.5% (w/v) methylcellulose solution) and the combination of Compound 2/BTK-1 (12 mg/kg Compound 2 and 7.5 mg/kg BTK-1), or (36 mg/kg Compound 2 and 7.5 mg/kg BTK-1), see Table 2. The compounds were administered by oral gavage (p.o.) twice daily (BID). After implantation, primary tumor volume was measured in two dimensions using a caliper. Compound 2 was (S)-3-(1-(8-amino-1-methylimidazo[1,5-a]pyrazin-3-yl)ethyl)-5-chloro-6-fluoro-2-isopropoxy-N-(2-(4-methylpiperazin-1-yl)ethyl)benzamide fumarate.
# Mice were euthanized using carbon dioxide when their tumor volume reached 2,000 mm^3 after twice measurements, the tumor was ulcerated, or body weight loss exceeded 20%.
# as §1, with “following formula: % TGI=100×[1−(treatedt/vehiclet)](treatedt=treated tumor volume at time t) and (vehiclet=vehicle tumor volume at time t)” for “formula in the above examples.”
# Farage cells = assay: Farage DLBCL xenograft mouse model, tumor growth inhibition; conditions: single agent, day 25
# Description: Farage cells are of DLBCL origin. Farage cells were cultured in RPMI1640 complete medium supplemented with 10% (v/v) fetal bovine serum, and 100 μg/mL of penicillin and streptomycin. On the day of implantation, aggregated cells were dispersed. Four hours later, media was removed and the cells were collected as described above. Cells were re-suspended in cold (4° C.) PBS and same volume of matrigel was added to give a final concentration of 1.5×10^7 cells/mL for Farage. Re-suspended cells were placed on ice prior to inoculation. The right flank region of each mouse (NCG) was cleaned with 75% ethanol prior to cell inoculation. Animals were then injected subcutaneously with 3×10^6 Farage cells in 100 μl of cell suspension in the right front flank via a 26-gauge needle.
# The animals were randomly divided into 6 groups with 10 mice per group. The groups consisted of vehicle group (0.5% (w/v) methylcellulose solution), 7.5 mg/kg BTK-1 (dissolved in 0.5% (w/v) methylcellulose solution), 12 mg/kg Compound 2 (dissolved in 0.5% (w/v) methylcellulose solution), 36 mg/kg Compound 2 (dissolved in 0.5% (w/v) methylcellulose solution), and the combination of Compound 2 and BTK-1 (12 mg/kg and 7.5 mg/kg, respectively), or (36 mg/kg and 7.5 mg/kg, respectively), see Table 4. BTK-1 and Compound 2 were administered as a combination by oral gavage (p.o.) twice daily (BID). After implantation, primary tumor volume was measured in two dimensions using a caliper. Compound 2 was (S)-3-(1-(8-amino-1-methylimidazo [1,5-a] pyrazin-3-yl) ethyl)-5-chloro-6-fluoro-2-isopropoxy-N-(2-(4-methylpiperazin-1-yl) ethyl) benzamide fumarate.
# as §2, §1
# [1] = Bioavailability of salts of Compound 1; conditions: among different salts of Compound 1
structure (smiles),measurement,setting,value
"Cc1nc([C@@H](C)c2cc(Cl)c(F)c(C(=O)NCCN3CCN(C)CC3)c2OC(C)C)n2ccnc(N)c12 [Compound 1, (S)-3-(1-(8-amino-1-methylimidazo[1,5-a]pyrazin-3-yl)ethyl)-5-chloro-6-fluoro-2-isopropoxy-N-(2-(4-methylpiperazin-1-yl)ethyl)benzamide]",% TGI,TMD8 cells; 10 mg/kg p.o. BID,27%
same,% TGI,TMD8 cells; 30 mg/kg p.o. BID,26%
same,% TGI,TMD8 cells; 100 mg/kg p.o. BID,43%
"C=CC(=O)N1CCC([C@@H]2CCNc3c(C(N)=O)c(-c4ccc(Oc5ccccc5)cc4)nn32)CC1 [BTK-1, (S)-7-(1-acryloylpiperidin-4-yl)-2-(4-phenoxyphenyl)-4,5,6,7-tetra-hydropyrazolo[1,5-a]pyrimidine-3-carboxamide]",% TGI,JeKo-1 cells; 7.5 mg/kg p.o. BID,43%
same,% TGI,MINO cells; 7.5 mg/kg p.o. BID,22%
same,% TGI,TMD8 cells; 2.5 mg/kg p.o. BID,68%
same,% TGI,Farage cells; 7.5 mg/kg p.o. BID,43%
"Cc1nc([C@@H](C)c2cc(Cl)c(F)c(C(=O)NCCN3CCN(C)CC3)c2OC(C)C)n2ccnc(N)c12.O=C(O)/C=C/C(=O)O [Compound 2, (S)-3-(1-(8-amino-1-methylimidazo[1,5-a]pyrazin-3-yl)ethyl)-5-chloro-6-fluoro-2-isopropoxy-N-(2-(4-methylpiperazin-1-yl)ethyl)benzamide fumarate]",% TGI,JeKo-1 cells; 12 mg/kg p.o. BID,59%
same,% TGI,JeKo-1 cells; 36 mg/kg p.o. BID,62%
same,% TGI,MINO cells; 12 mg/kg p.o. BID,26%
same,% TGI,MINO cells; 36 mg/kg p.o. BID,36%
same,% TGI,Farage cells; 12 mg/kg p.o. BID,40%
same,% TGI,Farage cells; 36 mg/kg p.o. BID,52%
same,bioavailability,[1],high bioavailability
